Data from US20010002252A1, “TOOTH WHITENING PREPARATIONS” (priority 1994, published 2001).

Assay: Tooth whitening by brushing of extracted bovine teeth with toothpaste slurry, colorimeter L value
Procedure: Tooth whitening was measured by the following process:
Whitening was determined using a modification to a system normally employed in the dental arts for determining the abrasivity of dentifrices.
Bovine jaws were obtained at a local abattoir and the teeth were extracted in their native state; no pre-cleaning was done. Teeth were mounted in a cap with dental acrylic so as to fit the format of a colorimeter and the brushing instrument: a detailed description is given below. An initial brushing was done with a slurry of Crest Regular toothpaste and an Oral B40, medium bristle, toothbrush. Then an initial L value was determined on a colorimeter (Hunter). This was designated as the initial whiteness value. The wear tester device was manufactured by Ramè-Hart, of Mountain Lakes, N.J. This machine has often been used to test the abrasivity of dental preparations. Tooth brushes were mounted and the teeth and brushes aligned. A 1:3 slurry of paste and water was poured into the trays and brushing commenced for a total of six hours. The slurry was replaced hourly. At 3 and 6 hours L value determinations were made. This was done by first rinsing the teeth with deionized water, then placing them in a closed container at 100% humidity for 1 hours, then taking a reading on the colorimeter to obtain a 3 hour and 6 hour L value.
Toothpaste slurries were tested for their whitening effect. […]

O=P(O)(O)OP(=O)(O)OP(=O)(O)O [STP, sodium tripolyphosphate]
tooth whitening as compared with the placebo base (10% or higher STP in Table I toothpaste base, 1:3 slurry of paste and water, brushing 6 hours, L value at 3 and 6 hours): superior tooth whitening
pH at which the best whitening results were obtained (STP toothpaste slurries, pH adjusted with 3M NaOH or 3M HCl): around 8.0
